According to CN108290841A, “具有荧光性的类视黄醇x受体结合性分子及其用途” (Okayama University NUC, priority 2015, dated 2017):
One block for each molecule: values may come before it.

Key:
[1] = system: retinoid X receptor (RXR) [类视黄醇X受体]; assay: Luciferase reporter gene assay for RXR transcriptional activation (Example 9); assay type: cell-based; details: COS-1 cells; for RXR agonist activity: relative to transcriptional activity with 1 μM bexarotene set to 1
NFκB = details: LPS 1 ng/mL, 24 h; relative to LPS without test compound as 100%
[2] = Blood concentration after oral administration to mice (Example 17); assay type: in vivo; details: mouse (male ICR, 6 weeks)
[3] = biological target: T1, RXRα protein (ligand binding domain (LBD)) [RXRα蛋白质(配体结合域(LBD))] (Homo sapiens, UniProt P19793); assay: RXR binding of RXR ligands evaluated with compound 10 as fluorescent probe (Example 13); details: RXRα-LBD 100 nM, compound 10 100 nM; from EC50 by Cheng-Prusoff equation
T1 construct: 关于RXRα蛋白质(配体结合域(LBD)),将Active Motif社制的物质以100nM使用; purchased Active Motif
T1 sequence (P19793 227-458 limits assumed): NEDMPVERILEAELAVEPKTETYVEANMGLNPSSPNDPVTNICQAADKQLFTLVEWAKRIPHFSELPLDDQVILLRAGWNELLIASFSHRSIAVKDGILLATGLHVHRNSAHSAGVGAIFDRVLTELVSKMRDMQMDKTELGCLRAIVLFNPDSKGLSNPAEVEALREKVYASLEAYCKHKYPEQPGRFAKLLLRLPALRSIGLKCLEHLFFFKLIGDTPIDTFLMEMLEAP

[4] = biological target: T1, RXRα protein (ligand binding domain (LBD)) [RXRα蛋白质(配体结合域(LBD))]; assay: Detection of RXR binding of RXR ligands with compound 44 (Example 15); details: test compound 1 μM, compound 44 30 nM, RXRα-LBD 100 nM
[5] = biological target: T2, full-length RXRα protein [全长RXRα蛋白质] (Homo sapiens, UniProt P19793); assay: Combined assay: RXR activation by fluorescence polarization of fluorescein-PGC1a coactivator peptide (Example 16); assay type: biochemical; details: test compound 10 μM, full-length RXRα 3 μM, compound 10 3 μM, fluorescein-PGC1a 30 nM
T2 construct: 全长RXRα蛋白质使用3μM
T2 sequence (P19793 1-462): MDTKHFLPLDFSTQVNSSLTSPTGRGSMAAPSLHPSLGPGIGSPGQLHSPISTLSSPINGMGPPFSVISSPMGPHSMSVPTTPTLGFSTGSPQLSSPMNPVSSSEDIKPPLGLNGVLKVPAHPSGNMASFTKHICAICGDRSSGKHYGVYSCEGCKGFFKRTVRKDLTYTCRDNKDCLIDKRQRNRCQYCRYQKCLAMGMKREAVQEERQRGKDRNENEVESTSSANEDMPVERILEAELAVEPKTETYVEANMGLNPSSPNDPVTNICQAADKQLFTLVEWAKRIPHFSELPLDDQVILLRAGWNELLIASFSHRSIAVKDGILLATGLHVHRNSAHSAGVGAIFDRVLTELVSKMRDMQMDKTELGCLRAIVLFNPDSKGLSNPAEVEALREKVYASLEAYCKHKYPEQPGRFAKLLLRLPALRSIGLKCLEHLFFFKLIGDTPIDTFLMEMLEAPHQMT

SMILES: Cc1cc2c(cc1-c1cc3cc(C(=O)O)c(=O)oc3cc1O)C(C)(C)CCC2(C)C [化合物10]
SEAP activity / inhibitory activity on NFκB transcriptional activity (NFκB): 抑制SEAP活性,显示对于NFκB的抑制活性
concentration at 0.5 h ([2]; in vivo, 30 mg/kg oral, 0.5 h after administration): ~3000 nM
disappearance from blood ([2]; 30 mg/kg oral, 0.5, 1, 3 and 6 h): 时间依赖性地从血液中消失

SMILES: CCCOc1cc2c(cc1-c1cc3cc(C(=O)O)c(=O)oc3cc1O)C(C)(C)CCC2(C)C [化合物23b]
RXR agonist activity [1]: 确认到RXR激动剂活性

SMILES: COc1cc2c(cc1-c1cc3cc(C(=O)O)c(=O)oc3cc1O)C(C)(C)CCC2(C)C [化合物23a]
RXR agonist activity [1]: 确认到RXR激动剂活性

Next, values leading:

RXR agonist activity [1]: 确认到RXR激动剂活性
SMILES: Cc1cc(OC(C)C)c(C(C)C)cc1-c1cc2cc(C(=O)O)c(=O)oc2cc1O [化合物30]

RXR antagonist activity ([1]; in the presence of the RXR agonist NEt-TMN (printed for compound 44; others tested similarly)): 确认到RXR拮抗剂活性
SMILES: CCCCCOc1cc2c(cc1-c1cc3cc(C(=O)O)c(=O)oc3cc1O)C(C)(C)CCC2(C)C [化合物23c]

Ki [3]: 73 nM
SMILES: Cc1cc2c(cc1-n1c(C(F)(F)F)nc3cc(C(=O)O)ccc31)C(C)(C)CCC2(C)C [CBTF-PMN]

change of fluorescence intensity of compound 44 by test compound [4]: 荧光强度减少
SMILES: CCN(c1ccc(C(=O)O)cn1)c1cc(OCC(C)C)c(C(C)C)cc1/C=C/c1ccccc1 [NEt-SB]

fluorescence polarization of fluorescein-PGC1a [5]: 减少
Ki [3]: 108 nM
SMILES: CCCCCCOc1cc2c(cc1N(C)c1ncc(C(=O)O)cn1)C(C)(C)CCC2(C)C [PA452]
